# In patent US12280065B2, “Pharmaceutical compounds and therapeutic methods” (RUTGERS, THE STATE UNIVERSITY OF NEW JERSEY, priority 2019, dated 2025):
# How the values were obtained:
# [1] = tested on: human tumor cell lines with different p53 status; test: Cell growth inhibition assay (Calcein AM); format: cell-based; conditions: for EC50: cell growth, Calcein AM, incubation for 3 days, cell line not stated; for Fold (ZN-1/compound) / Fold (compound/ZN-1): ratio of EC50s
# Method: Cell growth inhibition assay using human tumor cell lines with different p53 status (wildtype, null, p53-R175H or other zinc binding deficient mutants) were employed to determine if a test compound functions as a zinc metallochaperone to restore wildtype p53 functions. The cell growth inhibition assay was performed by Calcein AM assay (Trevigen). Five thousand cells per well were cultured in 96-well plate to reach the 50% confluence on the second day when treated with serial dilutions of the compounds. Growth was measured by Calcein AM assay (Trevigen) and Victor Plate reader instrument (PerkinElmer) after incubation for 3 days.
# [2] = Solubility of zinc complexes; format: physicochemical
# [3] = tested on: p53 target genes PUMA and GDF15 in p53-R175H cells; test: Mutant p53 transcriptional reactivation assay by qRT-PCR of p53 target genes; format: cell-based
# Method: p53 is a transcription factor. The reactivation of mutant p53 can be detected by regulation of the p53 target genes using quantitative reverse transcription PCR (qRT-PCR). The p53-R175H cells were treated with the compound for 6 hours and 24 hours followed by qRT-PCR to analyze the gene expression regulation. The two p53 target genes in this assay were PUMA and GDF15. For ZN-6, the expression levels were induced for 18-fold and 53-fold respectively (in parental cells). To double check the p53 dependence of the effect, the same assay applied to the p53 knockout cell line (KO, done by CRISPR-cas9 technology) and the p53 transient knockdown cells (KD, using siRNA knockdown). The PUMA induction was only 2× and 5× and GDF15 induction was only 1× and 5× in KO and KD cells, respectively (See FIG. 1).
# [4] = Colonogenic assay for long term cell killing; format: cell-based; conditions: ZN-6 at 10 nM; exposure up to 60 minutes, washout, crystal violet staining after 14-day incubation
# Method: Cell growth inhibition for 3 days is an effect for a short term treatment. A colonogenic assay was used for the long term cell killing effect. One thousand cells were seeded in each well in 6-well plates. On the second day the cells were exposed with the dilutions of the compound for up to 60 minutes. After that the compound was washed away and the cells were refed with fresh medium without the compound. The colonies were visualized by crystal violet staining after 14-day incubation.
# mutant p53-R175H protein = target: T1, mutant p53-R175H protein (Homo sapiens, UniProt P04637, R175H); test: Mutant p53 refolding assay (immunofluorescent staining with PAB1620 and PAB240); format: cell-based; conditions: p53-R175H cells (e.g. TOV 112D), treated 6 hours; data not shown
# T1 construct: endogenous in cells; host or cells: TOV 112D (p53-R175H cells)
# Method: An immunofluorescent staining using p53 conformation specific antibodies was used to determine if a test compound could induce the mutant p53 protein refolding to a wildtype conformation. The p53-R175H cells (e.g. TOV 112D) cultured in DMEM+10% FBS were treated with a test compound for 6 hours, then fixed and stained with the antibodies PAB1620 (recognizing WT conformation) and PAB240 (recognizing misfolded/unfolded conformation) respectively.
# [5] = p53 knockout cell line (KO, CRISPR-cas9)
# [6] = p53 transient knockdown cells (KD, siRNA)
# [7] = parental p53-R175H cells, 6 hours and 24 hours treatment
Compound,EC50 [1],Fold (ZN-1/compound) [1],Fold (compound/ZN-1) [1],Solubility in DMSO [2],Solubility in EtOH [2],"GDF15 induction [3, 5]","PUMA induction [3, 5]","GDF15 induction [3, 6]","PUMA induction [3, 6]","GDF15 expression induction [3, 7]","PUMA expression induction [3, 7]","Solubility in 5% EtOH, 4% Tween80, 4% Kolliphor, 87% water ([2]; 5% EtOH, 4% Tween80, 4% Kolliphor, 87% water)","Solubility in 10% EtOH, 10% captisol, 80% water ([2]; 10% EtOH, 10% captisol, 80% water)","Solubility in 50% EtOH 50% H2O ([2]; 50% EtOH, 50% H2O)",Earliest exposure time that showed effect on colony formation [4],Refolding of mutant p53 to wildtype conformation (mutant p53-R175H protein)
"C/C(=N\NC(=S)N(C)C)c1ncccc1CN1CCOCC1.C/C(=N\NC(=S)N(C)C)c1ncccc1CN1CCOCC1.[Zn] [ZN-7, Zn[(E)-N,N-dimethyl-2-(1-(3-(morpholinomethyl)pyridin-2-yl)ethylidene)hydrazine-1-carbothioamide]2]",8.36 nM,0.3,3.1,>5 mg/mL,1 to 2 mg/mL,,,,,,,,,,,
"COCCOCc1cccnc1/C(C)=N/NC(=S)N(C)C.COCCOCc1cccnc1/C(C)=N/NC(=S)N(C)C.[Zn] [ZN-6, Zn[(E)-2-(1-(3-((2-methoxyethoxy)methyl)pyridin-2-yl)ethylidene)-N,N-dimethylhydrazine-1-carbothioamide]2]",5.41 nM,0.5,2.0,>10 mg/mL,>10 mg/mL,1 ×,2 ×,5 ×,5 ×,53 fold,18 fold,1 mg/mL,1 mg/mL,>5 mg/mL,15 min,change the mutant p53-R175H protein from mutant conformation to WT conformation
"COCCOCc1ccnc(/C(C)=N/NC(=S)N(C)C)c1.COCCOCc1ccnc(/C(C)=N/NC(=S)N(C)C)c1.[Zn] [ZN-12, Zn[(E)-2-(1-(4-((2-methoxyethoxy)methyl)pyridin-2-yl)ethylidene)-N,N-dimethylhydrazine-1-carbothioamide]2]",2.52 nM,1.1,0.9,,,,,,,,,,,,,
"C/C(=N\NC(=S)N1CCC1)c1ccccn1 [ZMC1, reference compound]",,,,,,,,,,,,,,,15 min,change the mutant p53-R175H protein from mutant conformation to WT conformation
